According to US5180672A, “Ascorbate oxidase isolated from Acremonium sp. HI-25 ferm BP-3124” (Asahi Kasei Kogyo Kabushiki Kaisha, priority 1990, dated 1993):
Like-named read-outs stand apart in the source and are kept apart here.

What was measured:
[1] = tested on: ascorbate oxidase produced by Acremonium sp. HI-25; type: biochemical; conditions: for residual relative activities (%): 10 min, 1000 µM
[2] = tested on: ascorbate oxidase from Myrothecium verrucaria, hypha; conditions: at 1 mM; printed as effective (50% at 1 mM); cited from earlier work
[3] = tested on: ascorbate oxidase from Acremonium sp. HI-25; conditions: NaN3 0.2%, 2880 min
[4] = molecular target: T1, ascorbate oxidase from cucumber (Toyobo ASCORBATE OXIDASE, EC 1.10.3.3) (Cucumis sativus, UniProt P14133); conditions: reference J. Biochem. 64, 189 (1968); Toyobo catalog; read-out: K m (L-ascorbate); cited from earlier work
T1 sequence (P14133 34-587): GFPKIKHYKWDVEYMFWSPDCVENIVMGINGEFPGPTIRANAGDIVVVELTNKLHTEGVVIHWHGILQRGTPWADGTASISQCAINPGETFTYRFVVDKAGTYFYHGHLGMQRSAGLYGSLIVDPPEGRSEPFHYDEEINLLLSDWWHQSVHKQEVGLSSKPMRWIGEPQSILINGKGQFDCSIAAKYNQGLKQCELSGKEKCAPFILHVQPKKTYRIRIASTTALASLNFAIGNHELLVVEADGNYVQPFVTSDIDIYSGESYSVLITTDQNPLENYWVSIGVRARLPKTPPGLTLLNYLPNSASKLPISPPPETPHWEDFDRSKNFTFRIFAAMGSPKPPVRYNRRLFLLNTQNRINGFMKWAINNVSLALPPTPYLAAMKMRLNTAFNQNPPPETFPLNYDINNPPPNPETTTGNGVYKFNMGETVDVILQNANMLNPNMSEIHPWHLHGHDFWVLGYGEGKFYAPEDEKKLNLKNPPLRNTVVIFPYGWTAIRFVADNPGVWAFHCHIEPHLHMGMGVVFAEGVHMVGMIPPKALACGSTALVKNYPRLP

SMILES: CCN(CC)C(=S)[S-].[Na+] [sodium N,N-diethyldithiocarbamate]
- residual relative activities (%) [1]: 101%
- inhibition by inhibitor [2]: 50%

SMILES: [Na+].[Na+].[S-2] [Na2 S, sodium sulfide]
- residual relative activities (%) [1]: 3%

SMILES: [N-]=[N+]=[N-] [sodium azide]
- inactivation by inhibitor (in words) [1]: inactivated
- relative activities, 100 as buffers only ([3]; PIPES buffer with 0.1 % BSA): 78.4%
- relative activities, 100 as buffers only ([3]; Pi buffer with 0.1 % BSA): 76.2%
- relative activities, 100 as buffers only ([3]; Tris buffer with 0.1 % BSA): 78.6%

SMILES: O=C1O[C@H]([C@@H](O)CO)C(O)=C1O [L-ascorbate]
- Km [4]: 250 µM

SMILES: O=C(O)CN(CCN(CC(=O)O)CC(=O)O)CC(=O)O [EDTA]
- residual relative activities (%) [1]: 106%
